From PubChem BioAssay (NCI)
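Briefly, cells in 96-well plates were exposed to five compound concentrations for 48 h, and endpoints were estimated by linear interpolation. Abbreviation: GI50, concentration required for 50% inhibition of growth. TGI: total growth inhibition.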

Experiments:
Test in all cases: growth of human tumour cells (NCI), 48 h
786-0 renal = tested on: 786-0 renal
A549 NSCLC = tested on: A549 NSCLC
CCRF-CEM leukemia = tested on: CCRF-CEM leukemia
DU-145 prostate = tested on: DU-145 prostate
HT29 colon = tested on: HT29 colon
LOX IMVI melanoma = tested on: LOX IMVI melanoma
RPMI-8226 leukemia = tested on: RPMI-8226 leukemia
SK-MEL-28 melanoma = tested on: SK-MEL-28 melanoma
UACC-257 melanoma = tested on: UACC-257 melanoma
TK-10 renal = tested on: TK-10 renal

Row | Compound | GI50 (786-0 renal) [µM] | TGI (786-0 renal) [µM] | GI50 (A549 NSCLC) [µM] | TGI (A549 NSCLC) [µM] | GI50 (CCRF-CEM leukemia) [µM] | TGI (CCRF-CEM leukemia) [µM] | GI50 (DU-145 prostate) [µM] | TGI (DU-145 prostate) [µM] | GI50 (HT29 colon) [µM] | TGI (HT29 colon) [µM] | GI50 (LOX IMVI melanoma) [µM] | TGI (LOX IMVI melanoma) [µM] | GI50 (RPMI-8226 leukemia) [µM] | TGI (RPMI-8226 leukemia) [µM] | GI50 (SK-MEL-28 melanoma) [µM] | TGI (SK-MEL-28 melanoma) [µM] | GI50 (UACC-257 melanoma) [µM] | TGI (UACC-257 melanoma) [µM] | TGI (TK-10 renal) [µM] | GI50 (TK-10 renal) [µM]
1 | O=C(Nc1cccc(-n2cc(-c3ccncc3)c(-c3cc(O)cc(Cl)c3)n2)c1)c1cc(C(F)(F)F)cc(C(F)(F)F)c1 | 3.12 | 21.1 | 2.62 | > 100 | 2.68 | > 100 | 5.19 | > 100 | 2.5 | 37.7 | 3.29 | 13.7 | 2.5 | 12.7 | 4.71 | 85.3 | 4.23 | 51.2 |  | 
2 | C[N+](C)(C)CC1CCCC1=O (stereo not given) |  | 5.32 |  | 35.7 |  |  |  | 0.0951 |  | 3.34 |  | 2.33 |  | 11.2 |  | 3.72 |  | 13.3 | 6.76 | 
3 | CCOC(=O)/C(C#N)=C(O)/C(=C\c1ccc(Br)cc1)NC(=O)c1ccccc1 |  | > 100 |  | > 100 |  | > 100 |  |  |  | > 100 |  |  |  | 59.6 |  | > 100 |  | > 100 | > 100 | 
4 | CCN(CC)c1ccc2c(c1)Oc1ccc(N(CC)CC)cc1C21Oc2ccccc2-c2c1c1ccccc1n2CC (stereo not given) |  | > 100 |  | > 100 |  | > 100 |  |  |  | > 100 |  | > 100 |  | > 100 |  | > 100 |  | > 100 |  | 
5 | Cc1ccc(NC(=O)CC2C(=O)Nc3ccccc3S2(=O)=O)c(C)c1 (stereo not given) |  | 40.3 |  | 36.8 |  | 43.2 |  |  |  | 27.2 |  | 29 |  | 43.4 |  | 41.1 |  | 55 | 55 | 
6 | COc1cc2c(cc1OCCCCN1CCN(C(=S)SCCC(C#N)(c3ccccc3)c3ccccc3)CC1)N=C[C@@H]1CCCN1C2=O | 1.28 | 2.8 |  |  | 0.532 | > 100 |  |  | 1.13 | > 100 |  |  | 0.496 | 2.89 |  |  | 1.97 | 4.17 | 3.04 | 1.26
7 | COc1cc2c(cc1OC)-c1ncc3c(OC)c(OC)c(OC)cc3c1C2 | 36.7 | > 100 | 19.1 | 40.7 |  |  |  |  |  |  |  |  | 2.5 | 32.3 | > 100 | > 100 |  |  | 50.4 | 18.9
8 | Cc1nc(C(=O)O)c2ccccc2n1 |  | > 100 |  | > 100 |  | > 100 |  |  |  | > 100 |  |  |  | > 100 |  | > 100 |  | > 100 | > 100 | 
9 | NC(=O)NNC(=O)NC12CC3CC(CC(C3)C1)C2 |  | > 100 |  | > 100 |  | > 100 |  |  |  | > 100 |  | > 100 |  |  |  | > 100 |  | > 100 | > 100 | 
10 | Cc1ccc(C)c(N2C(=O)C(=O)C(c3nc4ccccc4s3)/C(=N/NC(=O)NN)C2=O)c1 (stereo not given) |  | > 100 |  | > 100 |  | > 100 |  |  |  | > 100 |  |  |  |  |  | > 100 |  | > 100 | > 100 | 
11 | O=C1Nc2ccccc2N=CC1NC(=O)C(c1ccccc1)c1ccccc1 (stereo not given) |  | > 100 |  | > 100 |  | > 100 |  |  |  | > 100 |  | > 100 |  | > 100 |  | > 100 |  | > 100 | > 100 | 
12 | COc1ccc(N(CC(=O)NCCC[Te]c2ccccc2)C(=O)CNC(=O)OC(C)(C)C)cc1 | 3.75 | 13 | 0.521 | 2.17 |  |  | 2.91 | 7.6 | 3.82 | 13.9 | 2.33 | 5.76 | 2.4 | 7.3 | 3.07 | 10.1 | 8.49 | 23.9 | 10.8 | 3.93
13 | C=C1CCC2[C@@H](CCC3[C@]2(C)CCC[C@]3(C)C(=O)OC)C1CC=O (stereo not given in full) |  | 33.1 | 21 | 42.5 |  | 35.2 |  |  |  | 30.8 |  |  | 8.28 | 33.4 |  | 30.7 |  | 31 | 26.6 | 13.2
14 | COc1ccc(NC(=O)C2CCC(CNS(=O)(=O)c3ccccc3)CC2)cc1OC (stereo not given) | > 100 | > 100 | > 100 | > 100 | > 100 | > 100 | > 100 | > 100 |  |  | > 100 | > 100 | > 100 | > 100 |  |  | > 100 | > 100 | > 100 | > 100
15 | O=C(CC1SC(=Nc2ccccc2Cl)NC1=O)Nc1ccc(Cl)cc1Cl (stereo not given) |  | > 100 |  | > 100 |  | > 100 |  |  |  | > 100 |  | > 100 |  | > 100 |  | > 100 |  | > 100 | > 100 | 
16 | O=C(O)/C=C/c1nc2ccccc2c(=O)o1 |  | > 100 |  | > 100 |  | > 100 |  |  |  | > 100 |  | > 100 |  | > 100 |  | > 100 |  |  | > 100 | 
17 | COC(=O)[C@@]1(C(C)CC(=O)O)CCCCC1=O (stereo not given in full) |  | > 100 |  | > 100 |  | > 100 |  |  |  | > 100 |  | > 100 |  | 82 |  | > 100 |  | > 100 | > 100 | 
18 | O=S(=O)(/C=C/C(=C/c1ccccc1)S(=O)(=O)c1ccccc1)c1ccccc1 |  | 3.15 |  | 4.65 |  | 3.05 |  |  |  | 3.28 |  | 2.08 |  | 3.4 |  | 2.8 |  | 2.89 | 3.24 | 
19 | COc1ccc(CCC2c3cc(OC)c(OC)cc3CCN2C)cc1OC (stereo not given) |  | > 100 |  | > 100 |  | > 100 |  |  |  | > 100 |  | > 100 |  | > 100 |  | > 100 |  | > 100 | > 100 | 
20 | C=CNC(=O)NC(=O)CSc1nnc(-c2ccccc2NC(=O)C(F)(F)F)c(=O)[nH]1 |  | > 100 |  | > 100 |  | > 100 |  |  |  | > 100 |  | > 100 |  |  |  | > 100 |  |  | > 100 | 
21 | CC1(c2ccccc2Cl)C(C#N)C(=O)NC(=O)C1C#N (stereo not given) |  | > 100 |  | > 100 |  | > 100 |  |  |  | > 100 |  | > 100 |  | 59.6 |  | > 100 |  | > 100 | > 100 | 
22 | Nc1c([N+](=O)[O-])nc(Cl)c2nncn12 |  | > 100 |  | > 100 |  | > 68.2 |  |  |  | > 100 |  | > 61.1 |  | > 69.7 |  | > 100 |  | > 100 | > 100 | 
